In EPA's ToxValDB 9.5:

System: Rattus norvegicus
Conditions: short-term, duration: 28 days, oral, gavage, Sprague-Dawley

O=C(O)C(F)(F)C(F)(F)C(F)(F)C(F)(F)C(F)(F)C(F)(F)C(F)(F)C(F)(F)C(F)(F)F [Perfluorodecanoic acid]
LOEL (F, Clinical chemistry_Alanine aminotransferase): 1.25 mg/kg-day
NOEL (F, Clinical chemistry_Albumin): 2.5 mg/kg-day
LOEL (F, Clinical chemistry_Albumin/globulin ratio): 0.312 mg/kg-day
LOEL (F, Clinical chemistry_Alkaline phosphatase): 0.312 mg/kg-day
LOEL (F, Clinical chemistry_Aspartate aminotransferase): 1.25 mg/kg-day
LOEL (F, Clinical chemistry_Cholesterol): 2.5 mg/kg-day
LOEL (F, Clinical chemistry_Creatinine kinase): 1.25 mg/kg-day
LOEL (F, Clinical chemistry_Direct bilirubin): 1.25 mg/kg-day
LOEL (F, Clinical chemistry_Free thyroxine): 1.25 mg/kg-day
LOEL (F, Clinical chemistry_Globulin): 0.312 mg/kg-day
LOEL (F, Clinical chemistry_Indirect bilirubin): 2.5 mg/kg-day
LOEL (F, Clinical chemistry_Sorbitol dehydrogenase): 2.5 mg/kg-day
LOEL (F, Clinical chemistry_Testosterone): 0.312 mg/kg-day
NOEL (F, Clinical chemistry_Thyroid stimulating hormone): 2.5 mg/kg-day
LOEL (F, Clinical chemistry_Total bile acids): 1.25 mg/kg-day
LOEL (F, Clinical chemistry_Total bilirubin): 1.25 mg/kg-day
NOEL (F, Clinical chemistry_Total protein): 2.5 mg/kg-day
NOEL (F, Clinical chemistry_Total thyroxine): 2.5 mg/kg-day
LOEL (F, Clinical chemistry_Total triiodothyronine): 1.25 mg/kg-day
NOEL (F, Clinical chemistry_Triglycerides): 2.5 mg/kg-day
LOEL (F, Gene expression_Acox1): 0.156 mg/kg-day
LOEL (F, Gene expression_Cyp2b1): 0.156 mg/kg-day
LOEL (F, Gene expression_Cyp2b2): 0.156 mg/kg-day
LOEL (F, Gene expression_Cyp4a1): 0.625 mg/kg-day
LOEL (F, Hematology_Erythrocytes): 1.25 mg/kg-day
LOEL (F, Hematology_Hematocrit): 1.25 mg/kg-day
LOEL (F, Hematology_Hemoglobin): 1.25 mg/kg-day
LOEL (F, Hematology_Mean corpuscular hemoglobin concentration): 2.5 mg/kg-day
LOEL (F, Hematology_Mean corpuscular volume): 1.25 mg/kg-day
LOEL (F, Hematology_Platelets): 2.5 mg/kg-day
LOEL (F, Hematology_Reticulocytes): 1.25 mg/kg-day
LOEL (F, Nonneoplastic effects_Bone marrow - Hypocellularity): 2.5 mg/kg-day
NOEL (F, Nonneoplastic effects_Forestomach - Epithelium, hyperplasia): 2.5 mg/kg-day
NOEL (F, Nonneoplastic effects_Forestomach - Inflammation, chronic active): 2.5 mg/kg-day
NOEL (F, Nonneoplastic effects_Kidney - Nephropathy, chronic progressive): 2.5 mg/kg-day
LOEL (F, Nonneoplastic effects_Liver - Hepatocyte, Necrosis): 2.5 mg/kg-day
LOEL (F, Nonneoplastic effects_Liver - Hepatocyte, cytoplasmic alteration): 0.625 mg/kg-day
LOEL (F, Nonneoplastic effects_Liver - Hepatocyte, hypertrophy): 1.25 mg/kg-day
LOEL (F, Nonneoplastic effects_Liver - Hepatocyte, vacuolization cytoplasmic): 2.5 mg/kg-day
NOEL (F, Nonneoplastic effects_Lymph nodes - Mandibular, atrophy): 2.5 mg/kg-day
NOEL (F, Nonneoplastic effects_Lymph nodes - Mesenteric, atrophy): 2.5 mg/kg-day
NOEL (F, Nonneoplastic effects_Nose - Olfactory epithelium, degeneration): 2.5 mg/kg-day
NOEL (F, Nonneoplastic effects_Nose - Olfactory epithelium, hyperplasia): 2.5 mg/kg-day
NOEL (F, Nonneoplastic effects_Nose - Olfactory epithelium, inflammation, suppurative): 2.5 mg/kg-day
NOEL (F, Nonneoplastic effects_Nose - Respiratory epithelium, hyperplasia): 2.5 mg/kg-day
NOEL (F, Nonneoplastic effects_Nose - Respiratory epithelium, inflammation, chronic active): 2.5 mg/kg-day
NOEL (F, Nonneoplastic effects_Spleen - Atrophy): 2.5 mg/kg-day
NOEL (F, Nonneoplastic effects_Spleen - Extramedullary hematopoiesis, increased): 2.5 mg/kg-day
LOEL (F, Nonneoplastic effects_Thymus - Atrophy): 2.5 mg/kg-day
NOEL (F, Nonneoplastic effects_Thymus - Lymphocyte, apoptosis): 2.5 mg/kg-day
NOEL (F, Nonneoplastic effects_Thyroid gland - Follicular cell hypertrophy): 2.5 mg/kg-day
LOEL (F, Organ weights_Liver - Absolute): 0.156 mg/kg-day
LOEL (F, Organ weights_Liver - Relative): 0.156 mg/kg-day
LOEL (F, Organ weights_R. adrenal gland - Absolute): 2.5 mg/kg-day
NOEL (F, Organ weights_R. adrenal gland - Relative): 2.5 mg/kg-day
LOEL (F, Organ weights_R. kidney - Absolute): 2.5 mg/kg-day
LOEL (F, Organ weights_R. kidney - Relative): 0.625 mg/kg-day
LOEL (F, Organ weights_Spleen - Absolute): 1.25 mg/kg-day
LOEL (F, Organ weights_Spleen - Relative): 0.625 mg/kg-day
LOEL (F, Organ weights_Thymus - Absolute): 2.5 mg/kg-day
LOEL (F, Organ weights_Thymus - Relative): 2.5 mg/kg-day
LOEL (F, Organ weights_Thyroid gland - Absolute): 0.312 mg/kg-day
LOEL (F, Organ weights_Thyroid gland - Relative): 0.312 mg/kg-day
LOEL (F, Reproductive toxicity_Altered estrous cyclicity): 1.25 mg/kg-day
NOEL (F, Survival rates): 2.5 mg/kg-day
LOEL (F, body weight): 1.25 mg/kg-day
LOEL (M, Clinical chemistry_Alanine aminotransferase): 0.312 mg/kg-day
LOEL (M, Clinical chemistry_Albumin): 1.25 mg/kg-day
LOEL (M, Clinical chemistry_Albumin/globulin ratio): 0.156 mg/kg-day
LOEL (M, Clinical chemistry_Alkaline phosphatase): 0.312 mg/kg-day
LOEL (M, Clinical chemistry_Aspartate aminotransferase): 0.156 mg/kg-day
LOEL (M, Clinical chemistry_Cholesterol): 0.156 mg/kg-day
NOEL (M, Clinical chemistry_Creatinine kinase): 2.5 mg/kg-day
LOEL (M, Clinical chemistry_Direct bilirubin): 1.25 mg/kg-day
LOEL (M, Clinical chemistry_Free thyroxine): 0.312 mg/kg-day
LOEL (M, Clinical chemistry_Globulin): 0.156 mg/kg-day
LOEL (M, Clinical chemistry_Indirect bilirubin): 1.25 mg/kg-day
NOEL (M, Clinical chemistry_Sorbitol dehydrogenase): 2.5 mg/kg-day
LOEL (M, Clinical chemistry_Testosterone): 1.25 mg/kg-day
NOEL (M, Clinical chemistry_Thyroid stimulating hormone): 2.5 mg/kg-day
LOEL (M, Clinical chemistry_Total bile acids): 1.25 mg/kg-day
LOEL (M, Clinical chemistry_Total bilirubin): 1.25 mg/kg-day
LOEL (M, Clinical chemistry_Total protein): 0.156 mg/kg-day
NOEL (M, Clinical chemistry_Total thyroxine): 2.5 mg/kg-day
NOEL (M, Clinical chemistry_Total triiodothyronine): 2.5 mg/kg-day
LOEL (M, Clinical chemistry_Triglycerides): 1.25 mg/kg-day
LOEL (M, Gene expression_Acox1): 0.156 mg/kg-day
LOEL (M, Gene expression_Acyl-CoA oxidase): 0.156 mg/kg-day
LOEL (M, Gene expression_Cyp2b1): 0.156 mg/kg-day
LOEL (M, Gene expression_Cyp2b2): 0.156 mg/kg-day
LOEL (M, Gene expression_Cyp4a1): 0.156 mg/kg-day
LOEL (M, Hematology_Erythrocytes): 2.5 mg/kg-day
NOEL (M, Hematology_Hematocrit): 2.5 mg/kg-day
NOEL (M, Hematology_Hemoglobin): 2.5 mg/kg-day
LOEL (M, Hematology_Mean corpuscular hemoglobin concentration): 0.625 mg/kg-day
LOEL (M, Hematology_Mean corpuscular volume): 1.25 mg/kg-day
NOEL (M, Hematology_Platelets): 2.5 mg/kg-day
LOEL (M, Hematology_Reticulocytes): 1.25 mg/kg-day
LOEL (M, Nonneoplastic effects_Bone marrow - Hypocellularity): 2.5 mg/kg-day
LOEL (M, Nonneoplastic effects_Epididymis - Duct, exfoliated germ cell): 2.5 mg/kg-day
NOEL (M, Nonneoplastic effects_Epididymis - Epithelium, apoptosis): 2.5 mg/kg-day
NOEL (M, Nonneoplastic effects_Epididymis - Hypospermia): 2.5 mg/kg-day
NOEL (M, Nonneoplastic effects_Forestomach - Epithelium, hyperplasia): 2.5 mg/kg-day
NOEL (M, Nonneoplastic effects_Forestomach - Inflammation, chronic active): 2.5 mg/kg-day
NOEL (M, Nonneoplastic effects_Kidney - Nephropathy, chronic progressive): 2.5 mg/kg-day
NOEL (M, Nonneoplastic effects_Liver - Hepatocyte, Necrosis): 2.5 mg/kg-day
LOEL (M, Nonneoplastic effects_Liver - Hepatocyte, cytoplasmic alteration): 0.625 mg/kg-day
LOEL (M, Nonneoplastic effects_Liver - Hepatocyte, hypertrophy): 1.25 mg/kg-day
LOEL (M, Nonneoplastic effects_Liver - Hepatocyte, vacuolization cytoplasmic): 1.25 mg/kg-day
NOEL (M, Nonneoplastic effects_Lymph nodes - Mandibular, atrophy): 2.5 mg/kg-day
NOEL (M, Nonneoplastic effects_Lymph nodes - Mesenteric, atrophy): 2.5 mg/kg-day
NOEL (M, Nonneoplastic effects_Nose - Olfactory epithelium, degeneration): 2.5 mg/kg-day
NOEL (M, Nonneoplastic effects_Nose - Olfactory epithelium, hyperplasia): 2.5 mg/kg-day
NOEL (M, Nonneoplastic effects_Nose - Olfactory epithelium, inflammation, suppurative): 2.5 mg/kg-day
NOEL (M, Nonneoplastic effects_Nose - Respiratory epithelium, hyperplasia): 2.5 mg/kg-day
NOEL (M, Nonneoplastic effects_Nose - Respiratory epithelium, inflammation, chronic active): 2.5 mg/kg-day
NOEL (M, Nonneoplastic effects_Spleen - Atrophy): 2.5 mg/kg-day
NOEL (M, Nonneoplastic effects_Spleen - Extramedullary hematopoiesis, increased): 2.5 mg/kg-day
LOEL (M, Nonneoplastic effects_Testes - Germinal epithelium, degeneration): 2.5 mg/kg-day
LOEL (M, Nonneoplastic effects_Testes - Interstitial cell, atrophy): 1.25 mg/kg-day
LOEL (M, Nonneoplastic effects_Testes - Seminiferous tubule, spermatid retention): 2.5 mg/kg-day
LOEL (M, Nonneoplastic effects_Thymus - Atrophy): 2.5 mg/kg-day
LOEL (M, Nonneoplastic effects_Thymus - Lymphocyte, apoptosis): 1.25 mg/kg-day
NOEL (M, Nonneoplastic effects_Thyroid gland - Follicular cell hypertrophy): 2.5 mg/kg-day
LOEL (M, Organ weights_Liver - Absolute): 0.156 mg/kg-day
LOEL (M, Organ weights_Liver - Relative): 0.156 mg/kg-day
LOEL (M, Organ weights_R. adrenal gland - Absolute): 0.156 mg/kg-day
LOEL (M, Organ weights_R. adrenal gland - Relative): 2.5 mg/kg-day
LOEL (M, Organ weights_R. kidney - Absolute): 2.5 mg/kg-day
LOEL (M, Organ weights_R. kidney - Relative): 0.625 mg/kg-day
LOEL (M, Organ weights_R. testis - Absolute): 2.5 mg/kg-day
LOEL (M, Organ weights_Spleen - Absolute): 1.25 mg/kg-day
LOEL (M, Organ weights_Spleen - Relative): 2.5 mg/kg-day
LOEL (M, Organ weights_Thymus - Absolute): 1.25 mg/kg-day
LOEL (M, Organ weights_Thymus - Relative): 1.25 mg/kg-day
NOEL (M, Organ weights_Thyroid gland - Absolute): 2.5 mg/kg-day
LOEL (M, Organ weights_Thyroid gland - Relative): 1.25 mg/kg-day
LOEL (M, Reproductive toxicity_Altered sperm parameters): 2.5 mg/kg-day
NOEL (M, Survival rates): 2.5 mg/kg-day
LOEL (M, body weight): 1.25 mg/kg-day
